Where two headings read alike, the source gives them in different places.
Assays:
[1] = molecular target: T1, UHRF1 tandem Tudor domain (TTD) (Homo sapiens, UniProt Q96T88); test: ITC binding to tandem Tudor domain of UHRF1
T1 construct: UHRF1 (aa 126–285); His (N, cleaved yes); made in house; host or cells: E. coli BL21 (DE3) Codon plus RIL
T1 sequence (Q96T88 126-285): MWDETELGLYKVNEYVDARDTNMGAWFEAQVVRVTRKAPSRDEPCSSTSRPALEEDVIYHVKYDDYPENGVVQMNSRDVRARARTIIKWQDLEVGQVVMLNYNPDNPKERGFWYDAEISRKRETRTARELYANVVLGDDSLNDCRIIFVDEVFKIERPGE
Excerpt: (§1) The coding DNA fragments of following Tudor domains were cloned into pET28-MHL vector: SMN (aa 82–147), UHRF1 (aa 126–285), SMNDC1 (aa 53–130), TDRD3 (aa 554–611), SND1 (aa 650–910), TDRD2 (aa 327–420), FXR1 (aa 2–132), PHF1 (aa 28–87), SGF29 (aa 115–293), JMJD2A (aa 897–1101), 53BP1 (aa 1483–1606), SETDB1 (aa 190–410), LBR (aa 1–67), ZGPAT (aa 120–271). The coding regions of chromodomain of CBX7 (aa 8–62), PWWP domain of DNMT3A (aa 275–417), WD40 repeats of WDR5 (aa 24–334) and CW domain of ZCWPW2 (aa 21–78) were also subcloned into pET28-MHL vector to generate N-terminally His-tagged fusion protein. The MBT repeats of L3MBTL1 (aa 200–522) and L3MBTL2 (aa 170–625) were subcloned into pET28GST-LIC vector to generate N-terminally GST-His-tagged fusion protein. All the plasmids were generated by ligase independent cloning (Vazyme Biotech, C112 or ABclonal Technology, RK21020). […] The proteins were further purified by Superdex75 or Superdex200 gel-filtration column (GE Healthcare) in a buffer containing 20 mM Tris-HCl, pH 7.5, 150 mM NaCl and 1 mM DTT. For crystallization experiments, purified proteins were concentrated to 18 mg/mL for SMN, 23 mg/mL for UHRF1 and 10 mg/mL for TDRD3 in the gel-filtration buffer. All the mutations were introduced with the QuikChange II XL site-directed mutagenesis kit (Stratagene, 200522) and confirmed by DNA sequencing. Mutant proteins were also expressed in E. coli BL21 (DE3) Codon plus RIL and purified using the same procedures described above. The molecular weight of all protein samples was measured by mass spectrometry.
(§2) For the ITC measurement, the concentrated proteins were diluted into 20 mM Tris-HCl, pH 7.5, 150 mM NaCl (ITC buffer); the lyophilized compounds were dissolved in the same buffer, and the pH value was adjusted by adding 2 M NaOH or 2 M HCl. The compounds that could not be dissolved in the ITC buffer were dissolved in DMSO with the accessible highest concentration. Compound concentrations were calculated from the mass and the volume of the solvent. For the ITC assay with compound dissolved in DMSO, the protein was diluted by ITC buffer containing same final concentration of DMSO. All measurements were performed in duplicate at 25 °C, using a VP-ITC (MicroCal, Inc.), an iTC-200 (MicroCal, Inc.), or a Nano-ITC (TA, Inc.) microcalorimeter. The protein with a concentration of 50–100 μM was placed in the cell chamber, and the compounds with a concentration of 0.5–2 mM in syringe was injected in 25, 20, or 20 successive injections with a spacing of 180, 150, or 120 s for VP-ITC, iTC-200, or Nano-ITC, respectively, as previously described[30]–[32]. iTC-200 or Nano-ITC data were consistent with those from the VP-ITC instrument, based on ITC results of SMN-compound 1 detected by using all the instruments. Control experiments were performed under identical conditions to determine the heat signals that arise from injection of the compounds into the buffer. Data were fitted using the single-site binding model within the Origin software 7.0 package (MicroCal, Inc.) or the independent model within the Nano-Analyze software package (TA, Inc.).

[2] = molecular target: T2, SMN Tudor domain (Homo sapiens, UniProt Q16637); test: ITC binding to Tudor domain of SMN
T2 construct: SMN (aa 82–147); His (N, cleaved yes); made in house; host or cells: E. coli BL21 (DE3) Codon plus RIL
Excerpt: as §1, §2

[3] = molecular target: R1810me2s-POLR2A (Homo sapiens) (UniProt P24928); conditions: cited from earlier work
[4] = molecular target: TDRD3 (Homo sapiens, UniProt Q9H7E2); test: Biotin-Cmpd 1 pulldown from U2OS cell lysates and western blotting, TDRD3; type: binding; design: endogenous in cells; host or cells: U2OS; conditions: U2OS cell lysate, 20 μM biotin-Cmpd 1 (Fig. 2c, Supplementary Fig. 6)
Procedure: (§3) U2OS cells were lysed in RIPA buffer (140 mM NaCl, 10 mM Tris-HCl, pH 7.6, 1% Triton, 0.1% sodium deoxycholate, 1 mM EDTA) containing protease inhibitors (Roche, 05892791001). The cell lysate was incubated with 20 μM biotin-Cmpd 1 overnight at 4 °C, then 30 μL streptavidin beads (Thermo Fisher, 20353) was added and incubated at 4 °C for 1 h. The beads were then washed with RIPA buffer for 3 times, 10 min/time and loading buffer was added and boiled for 5 min for elution. The eluted samples were separated by SDS-PAGE for western blotting (SMN monoclonal antibody, BD Transduction Laboratories, 610646, clone No. 8, dilution of 1:1000; TDRD3 rabbit monoclonal antibody, Cell signaling, 5492, clone No. 5492, dilution of 1:1000; SND1 polyclonal antibody, Bethyl, A302-883A, dilution of 1:2000; RFP polyclonal antibody, Abcam, ab62341, dilution of 1:1000; GFP monoclonal antibody, Santa Cruz Biotechnology, sc-9996, dilution of 1:1000; Streptavidin-Horseradish Peroxidase (HRP), Invitrogen, SA10001, dilution of 1:5000) as previously described[52],[53]. For the competition analysis, 200 μM biotin-free compound 1 or compound 15 was added at the same time when the biotin-Cmpd 1 was incubated with the cell lysates.

[5] = molecular target: T3, SMN (Homo sapiens, UniProt Q16637); test: Biotin-Cmpd 1 pulldown from U2OS cell lysates and western blotting, SMN; type: binding; conditions: U2OS cell lysate, 20 μM biotin-Cmpd 1, overnight 4 °C (Fig. 2c, Supplementary Fig. 6)
T3 construct: endogenous in cells; host or cells: U2OS
Procedure: as §3

[6] = system: SMN cage mutants; test: Biotin-Cmpd 1 pulldown from U2OS cell lysates, SMN cage mutants; type: binding, human; conditions: U2OS cell lysate, 20 μM biotin-Cmpd 1 (Fig. 2d)
Procedure: as §3

[7] = molecular target: T4, SND1 (Homo sapiens, UniProt Q7KZF4); test: Biotin-Cmpd 1 pulldown from U2OS cell lysates and western blotting, SND1; type: binding; conditions: U2OS cell lysate, 20 μM biotin-Cmpd 1 (Fig. 2c, Supplementary Fig. 6)
T4 construct: endogenous in cells; host or cells: U2OS
Procedure: as §3

[8] = ITC, Tudor domain of SMN wild type, 25 °C
[9] = Supplementary Fig. 12, read-out: Kd, binding affinity (determined by ITC) of different compounds to SMN
[10] = ITC, Tudor domain of SMN wild type, 25 °C, read-out: Kd (SMN)

Chain of TDRD3 (Q9H7E2 whole entry): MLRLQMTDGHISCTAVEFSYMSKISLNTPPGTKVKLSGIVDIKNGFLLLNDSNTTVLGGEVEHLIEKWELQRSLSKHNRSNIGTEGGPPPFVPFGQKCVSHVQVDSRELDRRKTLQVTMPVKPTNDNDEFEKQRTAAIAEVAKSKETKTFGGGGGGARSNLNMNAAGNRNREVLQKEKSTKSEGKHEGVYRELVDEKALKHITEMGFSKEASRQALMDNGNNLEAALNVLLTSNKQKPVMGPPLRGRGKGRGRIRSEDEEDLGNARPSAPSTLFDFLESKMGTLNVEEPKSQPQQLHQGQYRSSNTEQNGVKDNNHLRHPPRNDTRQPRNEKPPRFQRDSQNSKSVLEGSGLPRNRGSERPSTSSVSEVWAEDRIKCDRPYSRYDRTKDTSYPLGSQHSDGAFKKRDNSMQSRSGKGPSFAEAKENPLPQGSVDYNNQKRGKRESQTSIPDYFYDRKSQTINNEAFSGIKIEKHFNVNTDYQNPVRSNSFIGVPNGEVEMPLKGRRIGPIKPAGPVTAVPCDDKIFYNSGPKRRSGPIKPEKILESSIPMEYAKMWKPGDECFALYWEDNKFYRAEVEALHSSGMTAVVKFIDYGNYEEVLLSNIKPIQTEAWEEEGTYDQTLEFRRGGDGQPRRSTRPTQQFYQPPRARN
T4 sequence (Q7KZF4 whole entry): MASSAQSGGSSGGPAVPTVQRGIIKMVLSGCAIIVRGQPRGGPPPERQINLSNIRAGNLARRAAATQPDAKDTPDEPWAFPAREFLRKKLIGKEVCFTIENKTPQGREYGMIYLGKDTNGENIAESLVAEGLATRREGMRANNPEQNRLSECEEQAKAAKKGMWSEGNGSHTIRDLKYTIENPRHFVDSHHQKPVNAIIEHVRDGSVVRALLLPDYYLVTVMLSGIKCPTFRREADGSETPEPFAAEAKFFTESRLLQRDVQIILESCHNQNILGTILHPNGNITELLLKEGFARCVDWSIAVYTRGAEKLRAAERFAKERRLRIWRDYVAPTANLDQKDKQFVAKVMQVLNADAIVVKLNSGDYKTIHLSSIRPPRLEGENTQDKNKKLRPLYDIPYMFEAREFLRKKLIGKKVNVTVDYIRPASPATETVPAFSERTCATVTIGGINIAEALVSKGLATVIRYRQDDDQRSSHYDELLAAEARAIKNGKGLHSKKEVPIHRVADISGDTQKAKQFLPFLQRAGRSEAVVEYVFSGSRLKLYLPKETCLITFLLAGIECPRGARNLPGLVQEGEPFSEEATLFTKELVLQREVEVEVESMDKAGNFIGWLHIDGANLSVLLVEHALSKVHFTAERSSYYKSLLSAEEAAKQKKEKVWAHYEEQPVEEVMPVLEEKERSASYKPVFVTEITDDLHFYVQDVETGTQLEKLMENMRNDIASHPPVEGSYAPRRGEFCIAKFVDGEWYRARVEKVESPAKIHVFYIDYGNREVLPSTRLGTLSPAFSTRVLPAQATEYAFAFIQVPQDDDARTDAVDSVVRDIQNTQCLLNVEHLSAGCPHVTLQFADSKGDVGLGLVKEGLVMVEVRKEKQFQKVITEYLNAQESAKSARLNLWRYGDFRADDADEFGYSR

Compound | Kd (UHRF1) [1] | Kd (SMN) [2, 8] | Kd [2, 9] [µM] | further results
C[C@H]1Cc2ccccc2[C@@H]1N [Compound 10, (1R,2S)-2-methyl-2,3-dihydro-1H-inden-1-aminium] | No binding | No binding | > 244 | 
Nc1cccc2ccsc12 [Compound 12, benzo[b]thiophen-7-amine] | No binding | No binding | > 244 | 
NC[C@H]1CCc2ccccc21 [Compound 11, (S)-(2,3-dihydro-1H-inden-1-yl)methanaminium] | No binding | No binding | > 244 | 
CCOC(=O)Cn1c2c(c(=N)c3c1CCC3)CCC2 [Compound 3, ethyl 2-(8-imino-2,3,5,6,7,8-hexahydrodicyclopenta[b,e]pyridin-4(1H)-yl)acetate] | No binding |  |  | Kd [2, 10]: 31 ± 2 µM
C[C@H]1CCc2ccccc2[C@@H]1N [Compound 13, (1R,2S)-2-methyl-1,2,3,4-tetrahydronaphthalen-1-aminium] | No binding | No binding | > 244 | 
Cc1cc(=N)c2ccccc2n1C [Compound 6, 1,2-dimethylquinolin-4(1H)-imine] | Weak binding |  |  | Kd [2, 10]: 12 ± 2 µM
Cn1ccc(=N)cc1 [Compound 20, 1-methylpyridin-4(1H)-imine] | No binding | No binding | > 244 | 
CCCCc1c(CCC)c(=N)c2ccccc2n1C [Compound 5, 2-butyl-1-methyl-3-propylquinolin-4(1H)-imine] | No binding |  |  | Kd [2, 10]: 12 ± 1 µM
CN1CC[C@H](N)c2ccccc21 [Compound 15, (S)-1-methyl-1,2,3,4-tetrahydroquinolin-4-aminium] | No binding | No binding | > 244 | 
CN1CC[C@H](CN)c2ccccc21 [Compound 16, (S)-(1-methyl-1,2,3,4-tetrahydroquinolin-4-yl)methanaminium] | No binding | No binding | > 244 | 
CN[C@@H]1CCc2ccccc21 [Compound 9, (R)-N-methyl-2,3-dihydro-1H-inden-1-aminium] | No binding | No binding | > 244 | 
Nc1cccc2ocnc12 [Compound 7, benzo[d]oxazol-4-amine] | No binding | No binding | > 244 | 
SMN Tudor (from UniProt Q16637) |  |  |  | Kd [3]: 175 µM
N=C(N)N1CCC(Cc2ccccc2)CC1 [Compound 17, 4-benzylpiperidine-1-carboximidamide] | No binding | No binding | > 244 | 
CCN(CC)c1ccc(C(=N)N)cc1 [Compound 18, 4-(diethylamino)benzimidamide] | No binding | No binding | > 244 | 
Nc1cccc2cccnc12 [Compound 8, quinolin-8-amine] | No binding | No binding |  | Kd [2]: > 244 µM
N=c1c2c(n(CC(=O)NCCOCCOCCOCCNC(=O)CCCC[C@@H]3SC[C@@H]4NC(=O)N[C@@H]43)c3c1CCC3)CCC2 [biotin-Cmpd 1] |  |  |  | pulldown of TDRD3 from cell lysates [4]: neither TDRD3 nor SND1 could be detected; pulldown of SMN from cell lysates [5]: efficiently captured; pulldown of SMN from cell lysates ([5]; listed as Biotin-Cmpd 1): selectively chemiprecipates SMN; pulldown of SMN cage mutants from cell lysates [6]: could not efficiently pull down; pulldown of SND1 from cell lysates [7]: neither TDRD3 nor SND1 could be detected; Kd ([2]; Supplementary Figs. 2, 4 and 11a (VP-ITC), read-out: Kd, ITC binding curve, Tudor domain of SMN): 87 ± 12 µM
N=C(N)c1ccc(N)cc1 [Compound 19, 4-aminobenzimidamide] | No binding | No binding | > 244 | 
N=c1c2c(n(Cc3ccc(F)cc3)c3c1CCC3)CCC2 [Compound 4, 4-(4-fluorobenzyl)-2,3,4,5,6,7-hexahydrodicyclopenta[b,e]pyridin-8(1H)-imine] | No binding |  |  | Kd [2, 10]: 13 ± 1 µM
C[C@H]1CC[C@@H](N)c2ccccc21 [Compound 14, (1R,4S)-4-methyl-1,2,3,4-tetrahydronaphthalen-1-aminium] | No binding | No binding | > 244 | 

From PMC9481570, “A small molecule antagonist of SMN disrupts the interaction between SMN and RNAP II” (Nature Communications, 2022)
